In test [1] the target is T1, FGFR4 (GST-FGFR4(388-802)) (Homo sapiens, UniProt P22455).
T1 construct: GST-FGFR4(388-802); GST (N); made in house; host or cells: insect cells
Briefly: In-vitro biochemical kinase assay for FGFR4 (Caliper mobility shift). To be noted: 60 minutes at 30° C. The method, then:
In-Vitro Biochemical Kinase Assays for FGFR4
All assays were performed in 384 well microtiter plates. Each assay plate contained 8-point serial dilutions for 40 test compounds, as well as four 8-point serial dilutions of staurosporine as reference compound, plus 16 high and 16 low controls.
(§1) Liquid handling and incubation steps were done on an Innovadyne Nanodrop Express equipped with a robotic arm (Thermo CatX, Caliper Twister II) and an incubator (Liconic STX40, Thermo Cytomat 2C450). The assay plates were prepared by addition of 50 nI per well of compound solution in 90% DMSO. […] Kinase reactions were incubated at 30° C. for 60 minutes and subsequently terminated by addition of 16 μl per well of stop solution (100 mM HEPES pH 7.5, 5% DMSO, 0.1% Caliper coating reagent, 10 mM EDTA, and 0.015% Brij35). Plates with terminated kinase reactions were transferred to the Caliper LC3000 workstations for reading. Phosphorylated and unphosphorylated peptides were separated using the Caliper microfluidic mobility shift technology. Briefly, samples from terminated kinase reactions were applied to the chip. Analytes are transported through the chip by constant buffer flow and the migration of the substrate peptide is monitored by the fluorescence signal of its label. Phosphorylated peptide (product) and unphosphorylated peptide (substrate) are separated in an electric field by their charge/mass ratio. Kinase activities were calculated from the amounts of formed phospho-peptide. IC50 values were determined from percent inhibition values at different compound concentrations by non-linear regression analysis.
Preparation of Compound Dilutions
Test compounds were dissolved in DMSO (10 mM) and transferred into 1.4 mL flat bottom or V-shaped Matrix tubes carrying a unique 2D matrix. The stock solutions were stored at […] if not used immediately. For the test procedure the vials were defrosted and identified by a scanner whereby a working sheet was generated that guided the subsequent working steps.
Compound dilutions were made in 96 well plates. This format enabled the assay of maximally 40 individual test compounds at 8 concentrations (single points) including 4 reference compounds. The dilution protocol included the production of “pre-dilution plates”, “master plates” and “assay plates”.
96 polypropylene well plates were used as pre-dilution plates. A total of 4 pre-dilution plates were prepared including 10 test compounds each on the plate positions A1-A10, one standard compound at A11 and one DMSO control at A12. All dilution steps were done on a HamiltonSTAR robot.
These plates were used directly for the assay which was performed in a total volume of 9.05 μL.

A further test deals with T2, FGFR1 (407-822) (Homo sapiens, UniProt P11362).
T2 construct: FGFR1 (407-822)
T2 sequence (P11362 407-822): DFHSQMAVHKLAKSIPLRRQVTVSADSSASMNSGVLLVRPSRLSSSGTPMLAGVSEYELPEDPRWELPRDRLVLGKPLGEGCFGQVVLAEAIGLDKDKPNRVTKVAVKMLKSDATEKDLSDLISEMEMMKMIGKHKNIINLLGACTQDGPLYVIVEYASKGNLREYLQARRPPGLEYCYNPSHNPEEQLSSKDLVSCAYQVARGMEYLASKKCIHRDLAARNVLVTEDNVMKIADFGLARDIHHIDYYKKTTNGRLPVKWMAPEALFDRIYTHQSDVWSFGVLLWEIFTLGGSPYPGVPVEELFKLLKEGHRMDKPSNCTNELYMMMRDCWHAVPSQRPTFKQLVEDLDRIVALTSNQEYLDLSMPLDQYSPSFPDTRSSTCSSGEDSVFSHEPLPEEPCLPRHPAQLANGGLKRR
Briefly: In vitro biochemical assay for FGFR1. The method, then:
as §1
(§2) In vitro biochemical assays for FGFR1 (407-822), FGFR2 (406-821) and FGFR3 (411-806) were conducted in a similar manner to the in vitro biochemical assay for FGFR4 described above, using the indicated portions of the kinase domains. The following examples all produced IC50 values >10000 nM in the biochemical FGFR1, FGFR2 and FGFR3 assays: 2, 3, 4, 11, 13, 16, 17, 18, 20, 28, 30.

The target of another test is T3, FGFR2 (406-821) (Homo sapiens, UniProt P21802).
T3 construct: FGFR2 (406-821)
T3 sequence (P21802 406-821): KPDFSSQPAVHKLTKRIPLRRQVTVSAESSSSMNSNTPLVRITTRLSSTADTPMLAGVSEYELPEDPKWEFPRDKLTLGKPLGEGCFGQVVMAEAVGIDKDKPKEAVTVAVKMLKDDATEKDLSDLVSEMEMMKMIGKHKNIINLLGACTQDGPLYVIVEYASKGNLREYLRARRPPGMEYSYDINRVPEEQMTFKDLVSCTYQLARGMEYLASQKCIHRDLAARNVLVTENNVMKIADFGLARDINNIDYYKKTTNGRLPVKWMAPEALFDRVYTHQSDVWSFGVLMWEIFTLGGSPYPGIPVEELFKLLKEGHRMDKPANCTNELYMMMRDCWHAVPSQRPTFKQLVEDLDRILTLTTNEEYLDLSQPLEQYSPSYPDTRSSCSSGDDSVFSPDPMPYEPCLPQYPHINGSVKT
Briefly: In vitro biochemical assay for FGFR2. The procedure:
as §1, §2

For a further test, the target named is T4, FGFR3 (411-806) (Homo sapiens, UniProt P22607).
T4 construct: FGFR3 (411-806)
T4 sequence (P22607 411-806): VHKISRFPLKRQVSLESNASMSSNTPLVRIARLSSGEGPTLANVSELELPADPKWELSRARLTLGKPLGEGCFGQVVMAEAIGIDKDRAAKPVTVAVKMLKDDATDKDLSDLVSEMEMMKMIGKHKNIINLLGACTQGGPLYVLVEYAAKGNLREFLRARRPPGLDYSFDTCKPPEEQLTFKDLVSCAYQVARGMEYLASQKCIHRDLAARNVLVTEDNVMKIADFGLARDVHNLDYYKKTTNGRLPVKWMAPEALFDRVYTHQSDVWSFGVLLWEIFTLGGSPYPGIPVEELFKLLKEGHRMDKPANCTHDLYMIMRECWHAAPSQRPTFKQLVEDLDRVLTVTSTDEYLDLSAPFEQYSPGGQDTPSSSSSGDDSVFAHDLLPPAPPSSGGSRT
Briefly: In vitro biochemical assay for FGFR3. The method, then: as §1, §2

Test [2] addresses BaF3-Tel-FGFR4 cells (TEL fused to cytoplasmic domain of FGFR4) (Homo sapiens, UniProt P22455). Briefly: In vitro cellular kinase assay for FGFR4 (BaF3-Tel-FGFR4, MSD capture ELISA of tyrosine phosphorylation). The following applies: 1 hour incubation. On the technique in general: In an ELISA, binding on a coated surface is turned into a signal by an enzyme label.
The test system of test [3] is HuH-7 hepatocellular carcinoma cells. Briefly: Methylene blue staining proliferation assay (MBS). Type of test: cell-based. The following applies: Homo sapiens, HuH-7 cells, 72 hours, read-out: HUH7 proliferation MBS. The method, then:
Methylene Blue Staining Proliferation Assay (MBS):
The effect of compounds on cell proliferation is assessed using HuH-7 hepatocellular carcinoma cells obtained from the Japanese Collection of Research Bioresources Cell Bank (Cat# JCRB0403) and cultured in the vendor-recommended medium (DMEM high glucose (Amimed Cat#1-26F01-I), 10% foetal calf serum (Invitrogen Cat#16140-071), 1 mM sodium pyruvate (Amimed Cat#5-60F00-H), 1× Penicillin/Streptomycin (Amimed Cat#4-01F00-H)) at 37° C. in a humidified 5% CO2 incubator. […] 72 hours after compound addition, cells were fixed by adding 25 μL/well of 20% glutaraldehyde (Sigma Aldrich Cat# G400-4) and incubated for 10 minutes at room temperature. Cells were washed three times with H2O, 200 μL/well and stained with 100 μL/well 0.05% methylene blue (ABCR GmbH Cat# AB117904) for 10 minutes at room temperature. Cells were washed 3 times with H2O, 200 μL/well and then lysed by adding 200 μL/well of 3% HCl (Fluka Cat#84422) for 30 minutes at room temperature with shaking. Optical density was measured at A650 nm. The concentration of compound providing 50% of proliferation inhibition with respect to DMSO-treated cells was determined (IC50) using XLFit software.

For test [4] the test system is unchanged. Briefly: CellTiter Glo (CTG) proliferation/viability assay. Format: cell-based. To be noted: HuH-7 cells, 3 days, half-maximal growth inhibition (GI50), read-out: HUH7 proliferation CTG. The method, then: CellTiter Glo (CTG) Assay:
The functional effect of compounds on cell proliferation is assessed using HuH-7 hepatocellular carcinoma cells obtained from the Japanese Collection of Research Bioresources Cell Bank (Cat# JCRB0403) and cultured in the vendor-recommended medium (DMEM high glucose (Amimed Cat#1-26F01-I), 10% foetal calf serum (Invitrogen Cat#16140-071), 1 mM sodium pyruvate (Amimed Cat#5-60F00-H), 1× Penicillin/Streptomycin (Amimed Cat#4-01F00-H)) at 37° C. in a humidified 5% CO2 incubator. Compound-mediated suppression of cell proliferation/viability is assessed by quantification of cellular ATP levels using the CellTiter-Glo (CTG) reagent (Promega, Cat# G7573). Briefly, cells are seeded at 3′000 cells/well/80 μl fresh medium into tissue-culture-treated 96-well plates (Costar Cat#3904), followed by addition of 20 μl medium containing compound dilutions at 5-fold their final intended concentration. Dose-response effects are assessed by 3-fold serial dilutions of the test compound, starting at 10 μM. Following incubation of the cells for 3 days at 37° C. and 5% CO2, the effect of inhibitors on cell viability is quantified following addition of 50 μl CTG and luminescence measurement (integration time: 500 ms) as per vendor manual, using a correspondingly equipped multi-mode plate reader (M200Pro, TECAN, Switzerland). For data analysis, the assay background value determined in wells containing medium, but no cells, is subtracted from all data points. To enable differentiation of cytotoxic from cytostatic compounds, the number of viable cells is assessed relative to that observed at the time of compound addition using a separate cell plate (day 0). The effect of a particular test compound concentration on cell proliferation/viability is expressed as percentage of the background- and day 0-corrected luminescence reading obtained for cells treated with vehicle only (DMSO, 0.1% f.c.), which is set as 100%, whereas the luminescence reading for wells containing medium only, but no cells, is set as −100%. Compound concentrations leading to half-maximal growth inhibition (GI50) are determined using standard four parameter curve fitting (XLfit 5.2., IDBS, UK).
(In general: ATP-based viability assays read luminescence as a measure of living cells.)

BaF3-Tel-FGFR4 cells (TEL fused to cytoplasmic domain of FGFR4), sequence (P22455 with tags, fused parts or gaps): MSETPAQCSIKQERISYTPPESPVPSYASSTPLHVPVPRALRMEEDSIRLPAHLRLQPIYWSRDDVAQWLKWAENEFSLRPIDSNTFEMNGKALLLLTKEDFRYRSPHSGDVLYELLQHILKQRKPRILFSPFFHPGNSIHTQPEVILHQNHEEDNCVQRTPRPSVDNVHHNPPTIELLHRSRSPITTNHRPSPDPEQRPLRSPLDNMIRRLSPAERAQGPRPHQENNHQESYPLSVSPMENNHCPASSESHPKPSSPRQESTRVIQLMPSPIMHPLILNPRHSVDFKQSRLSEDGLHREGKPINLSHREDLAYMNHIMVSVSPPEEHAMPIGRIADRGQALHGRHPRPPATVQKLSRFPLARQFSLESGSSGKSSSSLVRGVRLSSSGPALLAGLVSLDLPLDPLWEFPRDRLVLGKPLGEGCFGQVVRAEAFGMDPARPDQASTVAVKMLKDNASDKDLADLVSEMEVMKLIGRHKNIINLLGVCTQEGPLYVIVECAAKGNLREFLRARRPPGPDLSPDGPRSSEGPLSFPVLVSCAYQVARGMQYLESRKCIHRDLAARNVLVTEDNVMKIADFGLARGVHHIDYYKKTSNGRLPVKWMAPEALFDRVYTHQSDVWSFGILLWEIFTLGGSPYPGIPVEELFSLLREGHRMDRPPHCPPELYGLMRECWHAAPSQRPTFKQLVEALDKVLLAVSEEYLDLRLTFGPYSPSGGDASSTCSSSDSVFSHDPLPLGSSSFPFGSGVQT
T1 sequence (P22455 388-802): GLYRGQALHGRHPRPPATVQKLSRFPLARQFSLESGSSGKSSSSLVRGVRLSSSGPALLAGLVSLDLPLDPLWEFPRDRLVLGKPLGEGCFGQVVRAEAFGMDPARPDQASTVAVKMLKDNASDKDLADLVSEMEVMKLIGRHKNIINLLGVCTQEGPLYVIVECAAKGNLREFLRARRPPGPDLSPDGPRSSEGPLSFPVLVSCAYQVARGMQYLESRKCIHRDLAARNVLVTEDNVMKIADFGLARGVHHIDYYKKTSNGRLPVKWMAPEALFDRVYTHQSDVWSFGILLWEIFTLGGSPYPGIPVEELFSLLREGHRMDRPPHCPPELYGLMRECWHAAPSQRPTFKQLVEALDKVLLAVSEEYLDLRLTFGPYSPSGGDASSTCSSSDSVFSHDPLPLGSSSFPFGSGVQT

With `COCCNc1cc(NC(=O)N(CC2CCOC2)c2cccc(C=O)n2)ncc1C#N` (racemic) [Example 4, 3-(5-cyano-4-((2-methoxyethyl)amino)pyridin-2-yl)-1-(6-formylpyridin-2-yl)-1-((tetrahydrofuran-3-yl)methyl)urea], the IC50 in test [1] was 0.0019 µM; against FGFR1 (407-822) it was above 10 µM; against FGFR2 (406-821) it was above 10 µM; against FGFR3 (411-806), above 10 µM; in test [2], 0.268 µM.
Regarding `COCCNc1cc(NC(=O)N(C)c2ccc(C(=O)O)c(C=O)n2)ncc1C#N` [Example 9, 6-(3-(5-cyano-4-((2-methoxyethyl)amino)pyridin-2-yl)-1-methylureido)-2-formylnicotinic acid], the IC50 is 0.0013 µM in test [1]; above 3 µM in test [3]; above 3 µM in test [4] (Homo sapiens, Huh-7, 72 h); 1.27 µM in test [2].
Turning to `CCN(C(=O)Nc1cc(NCCOC)c(C#N)cn1)c1ccc(-c2cnn(C)c2)c(C=O)n1` [Example 10, 3-(5-cyano-4-((2-methoxyethyl)amino)pyridin-2-yl)-1-ethyl-1-(6-formyl-5-(1-methyl-1H-pyrazol-4-yl)pyridin-2-yl)urea], the IC50 in test [1] amounted to 0.01 µM; in test [3], 1.09 µM; in test [2], 0.013 µM.
For the compound `CCN(C(=O)Nc1cc(NC(C)C)c(C#N)cn1)c1ccc(-c2cnn(C)c2)c(C=O)n1` [Example 11, 3-(5-cyano-4-(isopropylamino)pyridin-2-yl)-1-ethyl-1-(6-formyl-5-(1-methyl-1H-pyrazol-4-yl)pyridin-2-yl)urea], the IC50 in test [1] is 0.0056 µM; at FGFR1 (407-822), above 10 µM; at FGFR2 (406-821) it was above 10 µM; against FGFR3 (411-806) it was above 10 µM; in test [2], 0.017 µM.
As to `COCCNc1cc(NC(=O)N(C)c2ccc(-c3cnn(C)c3)c(C=O)n2)ncc1C#N` [Example 13, 3-(5-cyano-4-((2-methoxyethyl)amino)pyridin-2-yl)-1-methyl-1-(6-formyl-5-(1-methyl-1H-pyrazol-4-yl)pyridin-2-yl)urea], the IC50 was 0.0058 µM in test [1]; 0.664 µM in test [4] (Homo sapiens, Huh-7, 72 h); above 10 µM on FGFR1 (407-822); above 10 µM at FGFR2 (406-821); above 10 µM on FGFR3 (411-806); 0.053 µM in test [2].
As for `COCCNc1cc(NC(=O)N(C)c2ccc(CN(C)C(C)=O)c(C=O)n2)ncc1C#N` [Example 15, N-((6-(3-(5-cyano-4-((2-methoxyethyl)amino)pyridin-2-yl)-1-methylureido)-2-formylpyridin-3-yl)methyl)-N-methylacetamide], the IC50 stood at 0.025 µM in test [3]; 0.106 µM in test [4] (Homo sapiens, Huh-7, 72 h); 0.0048 µM in test [2].
For the compound `CC(C)Oc1cc(NC(=O)N(C)c2ccc(CN3CCN(C)CC3)c(C=O)n2)ncc1C#N` [Example 17, 3-(5-cyano-4-isopropoxypyridin-2-yl)-1-(6-formyl-5-((4-methylpiperazin-1-yl)methyl)pyridin-2-yl)-1-methylurea], the IC50 in test [1] was 0.029 µM; in test [4] (Homo sapiens, Huh-7, 72 h), 2.76 µM; at FGFR1 (407-822), above 10 µM; against FGFR2 (406-821), above 10 µM; at FGFR3 (411-806) it was above 10 µM; in test [2], 0.145 µM.
As to `COCCNc1cc(NC(=O)N(C)c2ccc(CN3CCCC3=O)c(C=O)n2)ncc1C#N` [Example 20, 3-(5-cyano-4-((2-methoxyethyl)amino)pyridin-2-yl)-1-(6-formyl-5-((2-oxopyrrolidin-1-yl)methyl)pyridin-2-yl)-1-methylurea], the IC50 is 0.0043 µM in test [1]; 0.1 µM in test [4] (Homo sapiens, Huh-7, 72 h); above 10 µM at FGFR1 (407-822); above 10 µM against FGFR2 (406-821); above 10 µM at FGFR3 (411-806); 0.0053 µM in test [2].
As for `COCCNc1cc(Nc2ccnn2-c2ccc(-c3cnn(C)c3)c(C=O)n2)ncc1C(F)(F)F` [Example 28, 6-(5-((4-((2-methoxyethyl)amino)-5-(trifluoromethyl)pyridin-2-yl)amino)-1H-pyrazol-1-yl)-3-(1-methyl-1H-pyrazol-4-yl)picolinaldehyde], the IC50 in test [1] was 0.48 µM; in test [4] (Homo sapiens, Huh-7, 72 h) it was above 3 µM; in test [4], 2.66 µM; on FGFR1 (407-822) it was above 10 µM; against FGFR2 (406-821) it was above 10 µM; against FGFR3 (411-806), above 10 µM. For the same compound, in test [2], the IC50 worked out at 2.64 µM.
As to `CC(C)Oc1cc(NC(=O)Nc2nccc(C=O)n2)ncc1C#N` [Example 30, 1-(5-cyano-4-isopropoxypyridin-2-yl)-3-(4-formylpyrimidin-2-yl)urea], the IC50 is 0.1 µM in test [1]; above 3 µM in test [4] (Homo sapiens, Huh-7, 72 h); above 10 µM against FGFR1 (407-822); above 10 µM against FGFR2 (406-821); above 10 µM at FGFR3 (411-806); 0.982 µM in test [2].

The record behind these values is patent US10189813B2, “Formylated N-heterocyclic derivatives as FGFR4 inhibitors” (NOVARTIS AG, priority 2015, dated 2019).
